The target in this assay is human CRTH2 (Homo sapiens (Human), UniProt Q9Y5Y4). The experiment in a line: Human CRTH2 Receptor Binding Assay (whole cell, [3H]ramatroban). The conditions noted are these: CHO-K1 cells expressing human CRTH2 and G-alpha16; 20 nM [3H]ramatroban; 1 hour, room temperature. From the text: Human CRTH2 Receptor Binding Assay
A whole cell receptor binding assay using [^3H]ramatroban as the competing radioactive ligand was employed to evaluate the compound binding activity to human CRTH2. The radioactive ligand [^3H]ramatroban was synthesized according to Sugimoto et. al. (Eur. J. Pharmacol. 524, 30-37, 2005) to a specific activity of 42 Ci/mmol.
A cell line stably expressing human CRTH2 was established by transfecting CHO-K1 cells with two mammalian expression vectors that harbored human CRTH2 and G-alpha16 cDNAs, respectively, using FuGene® 6 transfection reagent (from Roche). Stable clones expressing CRTH2 were selected by staining each clone with BM16 (BD Pharmingen™ from BD Biosciences, a division of Becton, Dickinson and Company), which is a rat monoclonal antibody to human CRTH2. The cells were maintained as monolayer cultures in Ham's F-12 medium containing 10% fetal bovine serum, 100 units/mL penicillin, 100 μg/mL streptomycin, 2 mM glutamine, 0.5 mg/mL G418 (geneticin) for CRTH2, and 0.2 mg/mL hygromycin-B (for G-alpha 16). For whole cell receptor binding assay, the monolayer cells were rinsed once with PBS (phosphate buffered saline), dissociated using ethylenediaminetetraacetate (Versene™ EDTA from Lonza Inc.), and suspended in PBS containing 10 mM MgCl2 and 0.06% BSA (bovine serum albumin) at 1.5×10^6 cells/mL.
The binding reactions (0.2 mL) were performed in 96-well plates at room temperature in PBS containing 1.5×10^5 cells, 10 mM MgCl2, 0.06% BSA, 20 nM [^3H]ramatroban, and test compound at various concentrations. After 1 hour of binding reactions, the cells were harvested on GF™/B filter microplates (microtiter plates with embedded glass fiber from PerkinElmer, Inc.) and washed 5 times with PBS using a Filtermate™ Harvester (a cell harvester that harvests and washes cells from microplates from PerkinElmer, Inc.). The radioactivities bound to the cells were determined using a microplate scintillation counter (TopCount® NXT, from PerkinElmer, Inc.) after adding 50 μL of Microscint™ 20 scintillation fluid (from PerkinElmer, Inc.) to each well of the filter plates. The radioactivity from non-specific binding was determined by replacing compound with 10 μM of 15(R)-15-methyl PGD2 (from Cayman Chemical Company) in the reaction mixtures. The radioactivity bound to the cells in the absence of compound (total binding) was determined by replacing compound with 0.25% of DMSO (dimethyl sulfoxide) in the reaction mixture. Specific binding data were obtained by subtracting the radioactivity of non-specific binding from each binding data.
The IC50 value is defined as the concentration of the tested compound that is required for 50% inhibition of total specific binding. In order to calculate the IC50 value, the percent inhibition data were determined for 7 concentrations for each compound. The percent inhibition for a compound at each concentration was calculated according to the following formula, [1-(specific binding in the presence of compound)/(total specific binding)]×100. The IC50 value was then obtained by fitting the percent inhibition data to a sigmoidal dose-response (4 parameter logistic) model in the XLfit® software Excel add-in program [from ID Business Solutions Ltd., model 205, where F(x)=(A+(B−A)/(1+((C/x)^D)))].

Chain of human CRTH2 (Q9Y5Y4 whole entry): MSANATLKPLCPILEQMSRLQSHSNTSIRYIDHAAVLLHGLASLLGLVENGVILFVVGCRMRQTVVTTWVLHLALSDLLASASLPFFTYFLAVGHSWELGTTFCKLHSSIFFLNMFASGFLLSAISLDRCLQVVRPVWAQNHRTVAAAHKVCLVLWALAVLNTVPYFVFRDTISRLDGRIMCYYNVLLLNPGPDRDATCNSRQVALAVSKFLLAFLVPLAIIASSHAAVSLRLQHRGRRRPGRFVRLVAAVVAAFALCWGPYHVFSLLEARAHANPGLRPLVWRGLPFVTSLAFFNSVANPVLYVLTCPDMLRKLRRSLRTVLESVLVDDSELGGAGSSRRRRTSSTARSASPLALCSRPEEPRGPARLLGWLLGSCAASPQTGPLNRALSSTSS

By IC50 is commonly meant the concentration that gives 50% inhibition. For the compound `Cc1c(CC(=O)O)cc2ccc(F)cc2c1-c1ccc(NS(=O)(=O)c2ccccc2)cc1` [Example 59, [4-(4-Benzenesulfonylamino-phenyl)-6-fluoro-3-methyl-naphthalen-2-yl]-acetic acid], the IC50 was found to be 3.2 nM.

Compound `Cc1c(CC(=O)O)cc2ccc(Cl)cc2c1-c1ccc(NC(=O)Nc2ccccc2)cc1` [Example 66, {6-Chloro-3-methyl-4-[4-(3-phenyl-ureido)-phenyl]-naphthalen-2-yl}-acetic acid] returned an IC50 of 19 nM.

`Cc1ccccc1S(=O)(=O)Nc1ccc(-c2c(C)c(CC(=O)O)cc3ccc(Cl)cc23)cc1` [Example 63, {6-Chloro-3-methyl-4-[4-(toluene-2-sulfonylamino)-phenyl]-naphthalen-2-yl}-acetic acid]: the IC50 was 8.3 nM.

For `Cc1c(CC(=O)O)cc2ccc(Cl)cc2c1-c1ccc(NC(=O)c2ccccc2)cc1` [Example 65, [4-(4-Benzoylamino-phenyl)-6-chloro-3-methyl-naphthalen-2-yl]-acetic acid], the IC50 turned out to be 6.2 nM.

The compound `Cc1c(CC(=O)O)cc2ccc(Cl)cc2c1-c1ccc(NS(=O)(=O)c2ccccc2)cc1` [Example 61, [4-(4-Benzenesulfonylamino-phenyl)-6-chloro-3-methyl-naphthalen-2-yl]-acetic acid] displayed an IC50 of 3.7 nM. Against the preceding compound, the IC50 is about 1.7-fold lower.

In turn, `Cc1c(CC(=O)O)cc2ccc(Cl)cc2c1-c1ccc(NS(=O)(=O)c2ccccc2C(F)(F)F)cc1` [Example 62, {6-Chloro-3-methyl-4-[4-(2-trifluoromethyl-benzenesulfonylamino)-phenyl]-naphthalen-2-yl}-acetic acid] yielded an IC50 of 8.9 nM.

For the compound `CC(=O)Nc1ccc(-c2c(C)c(CC(=O)O)cc3ccc(Cl)cc23)cc1` [Example 64, [4-(4-Acetylamino-phenyl)-6-chloro-3-methyl-naphthalen-2-yl]-acetic acid], the IC50 turned out to be 29.2 nM.

Consider `Cc1c(CC(=O)O)cc2ccc(Cl)cc2c1-c1ccc(S(=O)(=O)N2CCOCC2)cc1` [Example 55, {6-Chloro-3-methyl-4-[4-(morpholino-4-sulfonyl)-phenyl]-naphthalen-2-yl}-acetic acid], for which the IC50 came out at 2.4 nM.

The record behind these values is patent US9000044B2, “Substituted naphthylacetic acids” (Hoffmann-La Roche Inc., priority 2012, dated 2015).
